# Assay results reported in patent US9815839B2, “N-(1-(substituted-phenyl)ethyl)-9H-purin-6-amines as PI3K inhibitors” (Incyte Corporation, priority 2010, dated 2017).
# Target: T1, PI3Kδ (p110δ/p85α) (Homo sapiens, UniProt O00329)
# T1 construct: purchased Millipore (Bedford, Mass.)
# Experiment: PI3Kδ scintillation proximity assay
# Assay type: biochemical
# Details: 20 μM ATP, 4 nM PI3Kδ
# Excerpt: Example A: PI3Kδ Scintillation Proximity Assay
# Materials: [γ-^33P]ATP (10 mCi/mL) was purchased from Perkin-Elmer (Waltham, Mass.). Lipid kinase substrate, D-myo-Phosphatidylinositol 4,5-bisphosphate (PtdIns(4,5)P2)D (+)-sn-1,2-di-O-octanoylglyceryl, 3-O-phospho linked (PIP2), CAS 204858-53-7, was purchased from Echelon Biosciences (Salt Lake City, Utah). PI3Kδ (p110δ/p85α) was purchased from Millipore (Bedford, Mass.). ATP, MgCl2, DTT, EDTA, MOPS and CHAPS were purchased from Sigma-Aldrich (St. Louis, Mo.). Wheat Germ Agglutinin (WGA) YSi SPA Scintillation Beads was purchased from GE healthcare life sciences (Piscataway, N.J.).
# The kinase reaction was conducted in polystyrene 384-well matrix white plate from Thermo Fisher Scientific in a final volume of 25 μL. Inhibitors were first diluted serially in DMSO and added to the plate wells before the addition of other reaction components. The final concentration of DMSO in the assay was 0.5%. The PI3K assays were carried out at room temperature in 20 mM MOPS, pH 6.7, 10 mM MgCl2, 5 mM DTT and CHAPS 0.03%. Reactions were initiated by the addition of ATP, the final reaction mixture consisted of 20 μM PIP2,20 μM ATP, 0.2 μCi [γ-^33P] ATP, 4 nM PI3Kδ. Reactions were incubated for 210 minutes and terminated by the addition of 40 μL SPA beads suspended in quench buffer: 150 mM potassium phosphate pH 8.0, 20% glycerol. 25 mM EDTA, 400 µM ATP. The final concentration of SPA beads is 1.0 mg/mL. After the plate sealing, plates were shaken overnight at room temperature and centrifuged at 1800 rpm for 10 minutes, the radioactivity of the product was determined by scintillation counting on Topcount (Perkin-Elmer). IC50 determination was performed by fitting the curve of percent control activity versus the log of the inhibitor concentration using the GraphPad Prism 3.0 software.
# T1 sequence (O00329 whole entry, species assumed): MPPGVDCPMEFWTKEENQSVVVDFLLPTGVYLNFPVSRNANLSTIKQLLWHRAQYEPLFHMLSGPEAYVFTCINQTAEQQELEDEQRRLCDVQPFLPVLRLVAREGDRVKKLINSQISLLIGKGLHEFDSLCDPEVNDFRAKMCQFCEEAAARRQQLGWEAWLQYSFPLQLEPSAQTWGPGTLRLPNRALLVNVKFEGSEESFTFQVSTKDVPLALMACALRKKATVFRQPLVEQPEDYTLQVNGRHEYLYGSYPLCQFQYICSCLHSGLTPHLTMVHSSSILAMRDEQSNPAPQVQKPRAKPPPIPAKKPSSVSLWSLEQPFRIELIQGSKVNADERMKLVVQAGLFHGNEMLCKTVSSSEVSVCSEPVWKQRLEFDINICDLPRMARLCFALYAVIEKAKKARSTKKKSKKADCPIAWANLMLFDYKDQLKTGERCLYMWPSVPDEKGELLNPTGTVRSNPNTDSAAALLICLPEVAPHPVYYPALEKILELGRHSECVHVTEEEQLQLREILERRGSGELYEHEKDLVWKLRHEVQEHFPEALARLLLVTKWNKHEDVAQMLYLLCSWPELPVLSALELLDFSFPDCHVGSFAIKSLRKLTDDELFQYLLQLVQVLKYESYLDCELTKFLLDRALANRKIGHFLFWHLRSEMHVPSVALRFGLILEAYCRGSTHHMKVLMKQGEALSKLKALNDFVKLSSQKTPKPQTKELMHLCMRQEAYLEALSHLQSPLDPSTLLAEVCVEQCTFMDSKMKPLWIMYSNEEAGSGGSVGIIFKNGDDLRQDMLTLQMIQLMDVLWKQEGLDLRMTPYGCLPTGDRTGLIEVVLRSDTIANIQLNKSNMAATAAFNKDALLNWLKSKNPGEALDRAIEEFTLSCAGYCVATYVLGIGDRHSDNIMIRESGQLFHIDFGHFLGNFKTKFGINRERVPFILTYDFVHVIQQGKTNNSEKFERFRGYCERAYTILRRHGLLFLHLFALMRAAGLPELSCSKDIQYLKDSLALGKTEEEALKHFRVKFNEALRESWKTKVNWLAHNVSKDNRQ
# T1 sequence (P27986 whole entry partner, species assumed): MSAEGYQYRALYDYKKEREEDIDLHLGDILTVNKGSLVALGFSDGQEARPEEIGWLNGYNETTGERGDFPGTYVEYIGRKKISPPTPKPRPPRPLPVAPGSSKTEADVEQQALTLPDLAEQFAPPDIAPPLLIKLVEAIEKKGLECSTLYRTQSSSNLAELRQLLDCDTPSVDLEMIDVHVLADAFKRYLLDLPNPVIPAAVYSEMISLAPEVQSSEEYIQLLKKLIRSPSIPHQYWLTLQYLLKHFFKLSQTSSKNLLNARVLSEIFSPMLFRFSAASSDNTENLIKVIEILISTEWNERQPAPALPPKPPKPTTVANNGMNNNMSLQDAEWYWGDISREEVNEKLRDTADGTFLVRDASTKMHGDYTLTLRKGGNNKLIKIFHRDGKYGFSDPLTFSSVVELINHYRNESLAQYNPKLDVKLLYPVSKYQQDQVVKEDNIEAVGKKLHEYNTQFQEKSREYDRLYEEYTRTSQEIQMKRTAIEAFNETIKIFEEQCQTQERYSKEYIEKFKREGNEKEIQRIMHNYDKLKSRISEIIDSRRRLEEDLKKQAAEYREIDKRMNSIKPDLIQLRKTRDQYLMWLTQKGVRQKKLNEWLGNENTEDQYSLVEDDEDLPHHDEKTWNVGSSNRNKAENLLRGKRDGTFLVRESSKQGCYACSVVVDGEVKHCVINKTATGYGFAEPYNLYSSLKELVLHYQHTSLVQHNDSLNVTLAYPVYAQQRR
row,IC50,Compound
1,< 50 nM,"COc1c(C(C)Nc2ncnc3[nH]cnc23)cc(F)c(C)c1-c1cnn(C)c1 (centres unmarked) [Example 121, N-{1-[5-fluoro-2-methoxy-4-methyl-3-(1-methyl-1H-pyrazol-4-yl)phenyl]ethyl}-9H-purin-6-amine]"
2,250 to 500 nM,"COc1c(C(C)Nc2ncnc3[nH]cnc23)cc(F)c(C)c1-c1ccnn1C (centres unmarked) [Example 122, N-{1-[5-fluoro-2-methoxy-4-methyl-3-(1-methyl-1H-pyrazol-5-yl)phenyl]ethyl}-9H-purin-6-amine]"
3,50 to 100 nM,"COc1c(C(C)Nc2ncnc3[nH]cnc23)cc(F)c(C)c1-c1cnc(N)nc1 (centres unmarked) [Example 123, N-{1-[3-(2-aminopyrimidin-5-yl)-5-fluoro-2-methoxy-4-methylphenyl]ethyl}-9H-purin-6-amine]"
4,50 to 100 nM,"COc1c(-c2cncc(Cl)c2)cc(Cl)cc1C(C)Nc1ncnc2[nH]cnc12 (centres unmarked) [Example 125, N-{1-[5-Chloro-3-(5-chloropyridin-3-yl)-2-methoxyphenyl]ethyl}-9H-purin-6-amine]"
5,< 50 nM,"Cc1c(Cl)cc(C(C)Nc2ncnc3[nH]cnc23)c(OCCN2CCOCC2)c1-c1ccncc1 (centres unmarked) [Example 126, N-{1-[5-Chloro-4-methyl-2-(2-morpholin-4-ylethoxy)-3-pyridin-4-ylphenyl]ethyl}-9H-purin-6-amine]"
6,< 50 nM,"Cc1c(Cl)cc(C(C)Nc2ncnc3[nH]cnc23)c(C)c1-c1ccncc1 (centres unmarked) [Example 127, N-[1-(5-Chloro-2,4-dimethyl-3-pyridin-4-ylphenyl)ethyl]-9H-purin-6-amine]"
7,< 50 nM,"Cc1c(Cl)cc(C(C)Nc2ncnc3[nH]cnc23)c(OCCN2CCOCC2)c1-c1ccc(S(C)(=O)=O)cc1 (centres unmarked) [Example 128, N-{1-[5-Chloro-6-methyl-4′-(methylsulfonyl)-2-(2-morpholin-4-ylethoxy)biphenyl-3-yl]ethyl}-9H-purin-6-amine]"
8,< 50 nM,"COc1ncc(-c2cc(Cl)cc(C(C)Nc3ncnc4[nH]cnc34)c2-c2cc(F)cc(F)c2)cn1 (centres unmarked) [Example 129, N-{1-[4-chloro-3′,5′-difluoro-6-(2-methoxy-pyrimidin-5-yl)biphenyl-2-yl]ethyl}-9H-purin-6-amine]"
9,< 50 nM,"CC(=O)Nc1ccc(-c2cc(Cl)cc(C(C)Nc3ncnc4[nH]cnc34)c2-c2cc(F)cc(F)c2)cc1 (centres unmarked) [Example 130, N-{5′-chloro-3″,5″-difluoro-3′-[1-(9H-purin-6-ylamino)ethyl]-1,1′:2′,1″-terphenyl-4-yl}acetamide]"
10,< 50 nM,"CC(Nc1ncnc2[nH]cnc12)c1cc(Cl)cc(-c2ccncc2)c1-c1cc(F)cc(F)c1 (centres unmarked) [Example 131, N-[1-(4-chloro-3′,5′-difluoro-6-pyridin-4-ylbiphenyl-2-yl)ethyl]-9H-purin-6-amine]"
11,< 50 nM,"CC(Nc1ncnc2[nH]cnc12)c1cc(Cl)cc(-c2cncnc2)c1-c1cc(F)cc(F)c1 (centres unmarked) [Example 132, N-[1-(4-chloro-3′,5′-difluoro-6-pyrimidin-5-ylbiphenyl-2-yl)ethyl]-9H-purin-6-amine]"
12,50 to 100 nM,"CC(Nc1ncnc2[nH]cnc12)c1cc(Cl)cc(-c2cc(F)nc(F)c2)c1-c1cc(F)cc(F)c1 (centres unmarked) [Example 133, N-{1-[4-chloro-6-(2,6-difluoropyridin-4-yl)-3′,5′-difluorobiphenyl-2-yl]ethyl}-9H-purin-6-amine]"
13,< 50 nM,"CC(Nc1ncnc2[nH]cnc12)c1cc(Cl)cc(-c2ccc(S(C)(=O)=O)cc2)c1-c1cc(F)cc(F)c1 (centres unmarked) [Example 134, N-{1-[5′-chloro-3″,5″-difluoro-4-(methyl-sulfonyl)-1,1′:2′,1″-terphenyl-3′-yl]ethyl}-9H-purin-6-amine]"
14,< 50 nM,"CC(Nc1ncnc2[nH]cnc12)c1cc(Cl)cc(-c2cnc(N)nc2)c1-c1cc(F)cc(F)c1 (centres unmarked) [Example 135, N-{1-[6-(2-amino-pyrimidin-5-yl)-4-chloro-3′,5′-difluorobiphenyl-2-yl]ethyl}-9H-purin-6-amine]"
15,250 to 500 nM,"COc1c(-c2cc(F)nc(F)c2)cc(Cl)cc1C(C)Nc1ncnc2[nH]cnc12 (centres unmarked) [Example 141, N-{1-[5-chloro-3-(2,6-difluoropyridin-4-yl)-2-methoxyphenyl]ethyl}-9H-purin-6-amine]"
16,50 to 100 nM,"COc1c(-c2ccc(S(C)(=O)=O)cc2)cc(Cl)cc1C(C)Nc1ncnc2[nH]cnc12 (centres unmarked) [Example 142, N-{1-[5-chloro-2-methoxy-4′-(methylsulfonyl)-biphenyl-3-yl]ethyl}-9H-purin-6-amine]"

row,IC50,Compound
1,100 to 250 nM,"COc1c(-c2cnc(N)nc2)cc(Cl)cc1C(C)Nc1ncnc2[nH]cnc12 (centres unmarked) [Example 143, N-{1-[3-(2-amino-pyrimidin-5-yl)-5-chloro-2-methoxyphenyl]-ethyl}-9H-purin-6-amine]"
2,< 50 nM,"CNC(=O)c1ccc(-c2cc(Cl)cc(C(C)Nc3ncnc4[nH]cnc34)c2OC)cc1Cl (centres unmarked) [Example 144, 3,5′-dichloro-2′-methoxy-N-methyl-3′-[1-(9H-purin-6-ylamino)ethyl]biphenyl-4-carboxamide]"
3,< 50 nM,"COc1c(-c2ccnc(F)c2)cc(Cl)cc1C(C)Nc1ncnc2[nH]cnc12 (centres unmarked) [Example 145, N-{1-[5-chloro-3-(2-fluoropyridin-4-yl)-2-methoxyphenyl]ethyl}-9H-purin-6-amine]"
4,50 to 100 nM,"COc1cncc(-c2cc(Cl)cc(C(C)Nc3ncnc4[nH]cnc34)c2OC)c1 (centres unmarked) [Example 146, N-{1-[5-chloro-2-methoxy-3-(5-methoxy-pyridin-3-yl)phenyl]ethyl}-9H-purin-6-amine]"
5,< 50 nM,"COc1c(-c2ccc(F)nc2)cc(Cl)cc1C(C)Nc1ncnc2[nH]cnc12 (centres unmarked) [Example 147, N-{1-[5-chloro-3-(6-fluoropyridin-3-yl)-2-methoxyphenyl]-ethyl}-9H-purin-6-amine]"
6,50 to 100 nM,"COc1ccc(-c2cc(Cl)cc(C(C)Nc3ncnc4[nH]cnc34)c2OC)cn1 (centres unmarked) [Example 148, N-{1-[5-chloro-2-methoxy-3-(6-methoxypyridin-3-yl)phenyl]ethyl}-9H-purin-6-amine]"
7,< 50 nM,"Cc1c(Cl)cc(C(C)Nc2ncnc3[nH]cnc23)c(OCCN2CCOCC2)c1-c1cnc(N)nc1 (centres unmarked) [Example 149, N-{1-[3-(2-amino-pyrimidin-5-yl)-5-chloro-4-methyl-2-(2-morpholin-4-ylethoxy)-phenyl]ethyl}-9H-purin-6-amine]"
8,< 50 nM,"COc1cccc(-c2c(C)c(Cl)cc(C(C)Nc3ncnc4[nH]cnc34)c2OCCN2CCOCC2)c1 (centres unmarked) [Example 150, N-{1-[5-chloro-3′-methoxy-6-methyl-2-(2-mor-pholin-4-ylethoxy)-biphenyl-3-yl]ethyl}-9H-purin-6-amine]"
9,< 50 nM,"Cc1c(Cl)cc(C(C)Nc2ncnc3[nH]cnc23)c(OCCN2CCOCC2)c1-c1cncc(Cl)c1 (centres unmarked) [Example 151, N-{1-[5-chloro-3-(5-chloro-pyridin-3-yl)-4-methyl-2-(2-morpho-lin-4-yl-ethoxy)-phenyl]-ethyl}-9H-purin-6-amine]"
10,< 50 nM,"Cc1c(Cl)cc(C(C)Nc2ncnc3[nH]cnc23)c(OCCN2CCOCC2)c1-c1ccnn1C (centres unmarked) [Example 152, N-{1-[5-chloro-4-methyl-3-(1-methyl-1H-pyrazol-5-yl)-2-(2-morpholin-4-ylethoxy)-phenyl]-ethyl}-9H-purin-6-amine]"
11,< 50 nM,"COc1ccc(-c2c(C)c(Cl)cc(C(C)Nc3ncnc4[nH]cnc34)c2OCCN2CCOCC2)cc1OC (centres unmarked) [Example 153, N-{1-[5-chloro-3′,4′-dimethoxy-6-methyl-2-(2-mor-pholin-4-ylethoxy)-biphenyl-3-yl]ethyl}-9H-purin-6-amine]"
12,< 50 nM,CNC(=O)c1ccc(-c2c(C)c(Cl)cc(C(C)Nc3ncnc4[nH]cnc34)c2OCCN2CCOCC2)cc1Cl (centres unmarked) [Example 154]
13,< 50 nM,"Cc1c(Cl)cc(C(C)Nc2ncnc3[nH]cnc23)c(OCCN2CCOCC2)c1-c1cncc(C(=O)N2CCOCC2)c1 (centres unmarked) [Example 155, N-{1-[5-chloro-4-methyl-3-[5-(morpholin-4-ylcarbonyl)-pyridin-3-yl]-2-(2-morpholin-4-ylethoxy)-phenyl]-ethyl}-9H-purin-6-amine]"
14,< 50 nM,"Cc1c(Cl)cc(C(C)Nc2ncnc3[nH]cnc23)c(OCCN2CCOCC2)c1-c1cncc(S(C)(=O)=O)c1 (centres unmarked) [Example 156, N-{1-[5-chloro-4-methyl-3-[5-(methyl-sulfonyl)-pyridin-3-yl]-2-(2-morpholin-4-ylethoxy)-phenyl]-ethyl}-9H-purin-6-amine]"
15,< 50 nM,"COc1cncc(-c2c(C)c(Cl)cc(C(C)Nc3ncnc4[nH]cnc34)c2OCCN2CCOCC2)c1 (centres unmarked) [Example 157, N-{1-[5-chloro-3-(5-methoxy-pyridin-3-yl)-4-methyl-2-(2-mor-pholin-4-ylethoxy)-phenyl]-ethyl}-9H-purin-6-amine]"
16,< 50 nM,"CC(=O)Nc1ccc(-c2c(C)c(Cl)cc(C(C)Nc3ncnc4[nH]cnc34)c2OCCN2CCOCC2)cn1 (centres unmarked) [Example 158, N-(5-{3-chloro-2-methyl-6-(2-morpholin-4-ylethoxy)-5-[1-(9H-purin-6-yl-amino)ethyl]-phenyl}-pyridin-2-yl)acetamide]"
